# Reference: ChEMBL document CHEMBL1201862, “PubChem BioAssay data set” (2004)
#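 Dose response: 5 concentrations. Exposure: 48 h. Format: 96-well plates. Endpoint: linear interpolation; highest concentration if not reached. GI50 = concentration required for 50% inhibition of growth.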 Calls of active or inactive are those of the source. Rule as the data show it: active = GI50 up to about 1.1 µM and inactive = higher.
# Experiments:
# Test in all cases: inhibition of tumour cell growth, NCI panel, 48 h
# HOP-62 = system: HOP-62
# MOLT-4 = system: MOLT-4
# COLO 205 = system: COLO 205
# HCC 2998 = system: HCC 2998
# CCRF-CEM = system: CCRF-CEM
# HT-29 = system: HT-29
# A498 = system: A498
# CAKI-1 = system: CAKI-1
# SK-OV-3 = system: SK-OV-3
# K562 = system: K562
# MDA-MB-435 = system: MDA-MB-435
# NCI-H226 = system: NCI-H226
# NCI-H23 = system: NCI-H23
# RPMI-8226 = system: RPMI-8226
# HCT-116 = system: HCT-116
# TK-10 = system: TK-10
# KM12 = system: KM12
# SK-MEL-2 = system: SK-MEL-2
SMILES,GI50 (HOP-62),GI50 (MOLT-4),GI50 (COLO 205),GI50 (HCC 2998),GI50 (CCRF-CEM),GI50 (HT-29),GI50 (A498),GI50 (CAKI-1),GI50 (SK-OV-3),GI50 (K562),GI50 (MDA-MB-435),GI50 (NCI-H226),GI50 (NCI-H23),GI50 (RPMI-8226),GI50 (HCT-116),GI50 (TK-10),GI50 (KM12),GI50 (SK-MEL-2)
COC(=O)/C(=C\c1cn(C(C)=O)c2ccccc12)P(=O)(OC)OC,14.9 µM (inactive),34.8 µM (inactive),16.8 µM (inactive),16.8 µM (inactive),14.6 µM (inactive),16.1 µM (inactive),17.3 µM (inactive),12.6 µM (inactive),19 µM (inactive),25.1 µM (inactive),21.2 µM (inactive),38.4 µM (inactive),14.8 µM (inactive),17.1 µM (inactive),13.9 µM (inactive),20.8 µM (inactive),–,–
COCCOC(=O)C(C)=[N+]=[N-],> 100 µM (inactive),–,> 100 µM (inactive),> 100 µM (inactive),–,> 100 µM (inactive),> 100 µM (inactive),> 100 µM (inactive),–,> 100 µM (inactive),> 100 µM (inactive),> 100 µM (inactive),> 100 µM (inactive),> 100 µM (inactive),> 100 µM (inactive),> 100 µM (inactive),> 100 µM (inactive),–
Nc1ccc2c(c1)NCCN2,> 100 µM (inactive),2.75 µM (inactive),9.66 µM (inactive),> 100 µM (inactive),–,42.3 µM (inactive),–,12.9 µM (inactive),–,18.3 µM (inactive),82 µM (inactive),7.8 µM (inactive),78.9 µM (inactive),70.1 µM (inactive),> 100 µM (inactive),55.7 µM (inactive),> 100 µM (inactive),> 100 µM (inactive)
Sc1nn2c(COc3ccc(Cl)cc3)nnc2s1,> 100 µM (inactive),> 100 µM (inactive),> 100 µM (inactive),> 100 µM (inactive),–,> 100 µM (inactive),–,> 100 µM (inactive),> 100 µM (inactive),> 100 µM (inactive),> 100 µM (inactive),> 100 µM (inactive),> 100 µM (inactive),> 100 µM (inactive),> 100 µM (inactive),> 100 µM (inactive),> 100 µM (inactive),> 100 µM (inactive)
COc1ccc(-c2nc3c(C(=O)NCCN(C)C)cccc3c3ccccc23)cc1,3.06 µM (inactive),2.07 µM (inactive),1.99 µM (inactive),1.95 µM (inactive),2.77 µM (inactive),2.51 µM (inactive),2.98 µM (inactive),1.71 µM (inactive),–,2.06 µM (inactive),2.2 µM (inactive),5.57 µM (inactive),6.07 µM (inactive),–,3.46 µM (inactive),7.67 µM (inactive),3.58 µM (inactive),5.21 µM (inactive)
S=C1NC(c2ccccc2)NC(c2ccccc2)S1 (stereo unspecified),74.8 µM (inactive),> 100 µM (inactive),> 100 µM (inactive),–,2.2 µM (inactive),14.1 µM (inactive),> 100 µM (inactive),> 100 µM (inactive),> 100 µM (inactive),42.2 µM (inactive),> 100 µM (inactive),> 100 µM (inactive),> 100 µM (inactive),> 100 µM (inactive),> 100 µM (inactive),> 100 µM (inactive),> 100 µM (inactive),> 100 µM (inactive)
COc1ccc(NC(=O)/C(Cc2cc(=O)oc3cc(O)ccc23)=N\NC(C)(C)C)c(OC)c1,> 100 µM (inactive),> 100 µM (inactive),> 100 µM (inactive),> 100 µM (inactive),> 100 µM (inactive),> 100 µM (inactive),22.8 µM (inactive),> 100 µM (inactive),> 100 µM (inactive),> 100 µM (inactive),–,> 100 µM (inactive),> 100 µM (inactive),> 100 µM (inactive),> 100 µM (inactive),> 100 µM (inactive),> 100 µM (inactive),> 100 µM (inactive)
C1=C(c2ccccc2)C(N2CCOCC2)Oc2ccccc21 (stereo unspecified),> 100 µM (inactive),81.7 µM (inactive),> 100 µM (inactive),> 100 µM (inactive),> 100 µM (inactive),> 100 µM (inactive),25.5 µM (inactive),> 100 µM (inactive),> 100 µM (inactive),91.8 µM (inactive),> 100 µM (inactive),> 100 µM (inactive),> 100 µM (inactive),96.4 µM (inactive),> 100 µM (inactive),> 100 µM (inactive),> 100 µM (inactive),–
COc1ccc(C2=Nc3c(nc(SC)[nH]c3=O)NC(c3ccccc3)C2)cc1 (stereo unspecified),35.4 µM (inactive),18.7 µM (inactive),19.6 µM (inactive),–,29 µM (inactive),21.8 µM (inactive),33.3 µM (inactive),17.1 µM (inactive),18.1 µM (inactive),25.1 µM (inactive),29.2 µM (inactive),26.2 µM (inactive),20.6 µM (inactive),27.2 µM (inactive),30.9 µM (inactive),–,16.6 µM (inactive),29.1 µM (inactive)
CSc1cc(Br)ccc1-n1c(C(=O)c2ccccc2)c(SC)n(-c2ccccc2)c1=O,> 100 µM (inactive),5.28 µM (inactive),47.2 µM (inactive),86.9 µM (inactive),–,52.8 µM (inactive),–,> 100 µM (inactive),> 100 µM (inactive),4.81 µM (inactive),7.59 µM (inactive),> 100 µM (inactive),86.3 µM (inactive),–,49.3 µM (inactive),> 100 µM (inactive),> 100 µM (inactive),–
Cc1cc(C)cc(Nc2nnc3n2S(=O)(=O)c2cc(C#N)c(Cl)cc2S3)c1,2.77 µM (inactive),1.11 µM (active),10.9 µM (inactive),–,1.07 µM (active),1.83 µM (inactive),16.3 µM (inactive),3.24 µM (inactive),6.56 µM (inactive),1.47 µM (inactive),3.03 µM (inactive),10.6 µM (inactive),1.77 µM (inactive),–,2.17 µM (inactive),–,1.89 µM (inactive),7.53 µM (inactive)
O=C1NNC2NC(=O)C3(NN2C1=O)c1ccccc1-c1ccccc13 (stereo unspecified),> 100 µM (inactive),–,> 100 µM (inactive),> 100 µM (inactive),> 100 µM (inactive),> 100 µM (inactive),> 100 µM (inactive),> 100 µM (inactive),> 100 µM (inactive),> 100 µM (inactive),> 100 µM (inactive),> 100 µM (inactive),> 100 µM (inactive),–,> 100 µM (inactive),> 100 µM (inactive),–,> 100 µM (inactive)
N#CCC1COc2ccccc2O1 (stereo unspecified),> 10 µM (inactive),> 10 µM (inactive),> 10 µM (inactive),> 10 µM (inactive),> 10 µM (inactive),> 10 µM (inactive),–,> 10 µM (inactive),> 10 µM (inactive),> 10 µM (inactive),> 10 µM (inactive),–,> 10 µM (inactive),> 10 µM (inactive),> 10 µM (inactive),> 10 µM (inactive),> 10 µM (inactive),–
COc1ccc(-c2oc3cc(O)cc(O)c3c(=O)c2OC)cc1 [ERMANIN],26.6 µM (inactive),20.9 µM (inactive),20.7 µM (inactive),26 µM (inactive),22.1 µM (inactive),24.7 µM (inactive),24.4 µM (inactive),24.3 µM (inactive),4.66 µM (inactive),9.79 µM (inactive),17.8 µM (inactive),–,–,15 µM (inactive),39.9 µM (inactive),39.9 µM (inactive),–,–
CC(=O)c1[nH]c(NCc2ccccc2)c(C(=S)Nc2ccccc2)c1N,19.9 µM (inactive),36.7 µM (inactive),28.4 µM (inactive),20.5 µM (inactive),28.1 µM (inactive),31.3 µM (inactive),17.9 µM (inactive),31 µM (inactive),> 100 µM (inactive),24.9 µM (inactive),18.2 µM (inactive),18.2 µM (inactive),38.8 µM (inactive),–,18.4 µM (inactive),27.5 µM (inactive),17.9 µM (inactive),0.258 µM (active)
Nc1nc(Cl)cc(NCC2(CO)CC(=O)C2)n1,> 100 µM (inactive),> 100 µM (inactive),> 100 µM (inactive),> 100 µM (inactive),> 100 µM (inactive),> 100 µM (inactive),–,> 100 µM (inactive),> 100 µM (inactive),> 100 µM (inactive),> 100 µM (inactive),> 100 µM (inactive),> 100 µM (inactive),> 100 µM (inactive),> 100 µM (inactive),> 100 µM (inactive),> 100 µM (inactive),> 100 µM (inactive)
COC(=O)C(=O)C(C(=O)C(=O)Nc1ccc(Cl)cc1Cl)c1nc2ccc(Cl)cc2nc1O (stereo unspecified),> 100 µM (inactive),82.8 µM (inactive),> 100 µM (inactive),> 100 µM (inactive),69.7 µM (inactive),> 100 µM (inactive),–,> 100 µM (inactive),> 100 µM (inactive),–,> 100 µM (inactive),49 µM (inactive),> 100 µM (inactive),–,> 100 µM (inactive),69.8 µM (inactive),> 100 µM (inactive),> 100 µM (inactive)
O=C1CC(CC(O)C(O)CO)CC(=O)N1 (stereo unspecified),> 100 µM (inactive),> 100 µM (inactive),–,> 100 µM (inactive),> 100 µM (inactive),> 100 µM (inactive),> 100 µM (inactive),> 100 µM (inactive),–,> 100 µM (inactive),> 100 µM (inactive),> 100 µM (inactive),> 100 µM (inactive),> 100 µM (inactive),> 100 µM (inactive),> 100 µM (inactive),> 100 µM (inactive),–
